Results taken from US12325710B2, “Substituted 1,2,3,4,5,6-hexahydroazepino[4,5-b]indoles for treating brain disorders” (priority 2019, dated 2025).
“Also recorded” adds a separate entry of the source.

How the values were obtained:
5HT2A sensor = 5HT2A sensor assay (sLight1.3s HEK293T cells), agonist and antagonist mode; assay type: cell-based; conditions: for activation of 5HT2A sensor, agonist mode / competition with 5HT binding at 5HT2A sensor, antagonist mode: 10 μM of compound; for activation of 5HT2A sensor, agonist mode: FIG. 16; for activation of 5HT2A sensor, agonist mode, dose response: FIG. 15; for competition with 5HT binding at 5HT2A sensor, antagonist mode: FIG. 18
Procedure: 5HT2A Sensor Assays. HEK293T (ATCC) 5HT2A sensor stable line (sLight1.3s) was generated via lentiviral transduction of HIV-EF1α-sLight1.3 and propagated from a single colony. Lentivirus was produced using 2nd generation lentiviral plasmids pHIV-EF1α-sLight1.3, pHCMV-G, and pCMV-deltaR8.2.
For the screening of the 41 compounds, sLight1.3s cells were plated in 96-well plates at a density of 40000 24-hours prior to imaging. On the day of imaging, compounds solubilized in DMSO were diluted from the 100 mM stock solution to working concentrations of 1 mM, 100 μM and 1 μM with a DMSO concentration of 1%. Immediately prior to imaging, cells growing in DMEM (Gibco) were washed 2× with HBSS (Gibco) and in agonist mode 180 μL of HBSS or in antagonist mode 160 μL of HBSS was added to each well after the final wash. For agonist mode, images were taken before and after the addition of the 20 μL compound working solution into the wells containing 180 μL HBSS. This produced final compound concentrations of 100 μM, 10 μM and 100 nM with a DMSO concentration of 0.1%. For antagonist mode, images were taken before and after addition of 20 μL of 900 nM 5-HT and again after 20 μL of the compound working solutions to produce final concentrations of 100 nM for 5HT and 100 μM, 10 μM and 100 nM for the compounds with a DMSO concentration of 0.1%. Each compound was tested in triplicates (3 wells) for each concentration (100 μM, 10 μM and 100 nM). Additionally, within each plate, 100 nM 5HT and 0.1% DMSO controls were also imaged.
For each well, the cellular membrane where the 5HT2A sensor is targeted was autofocused using the adaptive focus controls and 5 images from different regions within the well were taken with each image processed from a 2×2 binning.
For data processing, the membranes from each image was segmented and analyzed using a custom algorithm written in MATLAB producing a single raw fluorescence intensity value. For each well the 5 raw fluorescence intensity values generated from the 5 images were averaged and the change in fluorescence intensity (dFF) was calculated as: dFF=(Fsat−Fapo)/Fapo
For both agonist and antagonist modes, the fluorescence intensity values before compound addition in HBSS only were used as the Fapo values while the fluorescence intensity values after compound addition were used as the Fsat values.
For agonist mode, data are as percent activation relative to 5HT, where 0 is the average of the DMSO wells and 100 is the average of the 100 μM 5HT wells.

[1] = tested on: rat embryonic cortical neurons; test: Dendritogenesis (Sholl analysis) in cultured cortical neurons; assay type: cell-based; conditions: 1 h treatment followed by 71 h growth; compared to vehicle (VEH)
Procedure: Embryonic rat cortical neurons were treated for a short period of time (1 h) followed by a suitable growth period (71 h) to measure the psychoplastogenic effects of the compounds described herein. […] Therefore, the effects of ibogalogs 8-17 on dendritic growth was assessed.
Dendritogenesis Experiments. For the dendritogenesis experiments conducted using cultured cortical neurons, timed pregnant Sprague Dawley rats were obtained from Charles River Laboratories (Wilmington, MA). Full culturing, staining, and analysis details were performed as previously described. (Dunlap, L. et al., 2019)

larval zebrafish = test: Larval zebrafish movement activity during a battery of light and acoustic stimuli; conditions: for behavioral phenotype with increasing concentration versus vehicle and lethal control (eugenol, 100 μM): 1 h treatment, concentration-response; for behavioral phenotype at highest concentration versus lethal control: 200 μM
Source text: Stimuli applied over time are indicated under the heatmaps. Colors indicate bright LED light of respective colors, black traces represent the waveforms of acoustic stimuli, and gray vertical lines indicate physical tapping as secondary acoustic stimuli.
Response is […] proportional to classification accuracy; 0-20% indicates no ability and 100% indicates perfect classification. […] The solid line denotes the median and the shading denotes a 95th percentile confidence interval calculated by bootstrap. N=8 wells/condition (64 animals/condition).

zebrafish = test: Zebrafish developmental toxicity assay; assay type: in vivo; conditions: 100 μM; 2 and 5 dpf
[2] = tested on: larval zebrafish expressing GCaMP5; test: Seizurogenic potential in larval zebrafish expressing GCaMP5; assay type: in vivo; conditions: 200 μM; PTZ positive control
Procedure: Transgenic larval zebrafish expressing GCaMP5G were immobilized in agarose, treated with compounds, and imaged over time. The known seizure-inducing compound PTZ was used as a positive control. All compounds were treated at 200 μM (n=2 per condition).

5-HT2B receptors = 5-HT2B receptors (Homo sapiens, UniProt P41595); test: 5-HT2B Gq-mediated calcium flux functional assay; assay type: cell-based
Sequence of 5-HT2B receptors (P41595 whole entry, canonical isoform): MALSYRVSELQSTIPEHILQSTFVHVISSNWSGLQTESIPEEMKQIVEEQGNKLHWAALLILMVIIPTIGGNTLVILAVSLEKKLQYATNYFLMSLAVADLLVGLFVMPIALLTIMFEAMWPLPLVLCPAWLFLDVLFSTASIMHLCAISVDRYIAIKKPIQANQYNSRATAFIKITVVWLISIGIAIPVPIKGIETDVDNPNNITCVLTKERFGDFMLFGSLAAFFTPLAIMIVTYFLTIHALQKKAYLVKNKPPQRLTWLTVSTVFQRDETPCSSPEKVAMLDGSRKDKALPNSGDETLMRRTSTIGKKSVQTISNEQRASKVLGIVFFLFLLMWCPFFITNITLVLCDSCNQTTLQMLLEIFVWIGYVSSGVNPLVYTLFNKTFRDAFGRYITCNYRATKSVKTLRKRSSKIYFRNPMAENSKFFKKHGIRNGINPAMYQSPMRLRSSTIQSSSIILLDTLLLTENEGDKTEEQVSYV
Procedure: Serotonin and Opioid Receptor Functional Assays. Functional assay screens at 5-HT and opioid receptors were performed in parallel using the same compound dilutions and 384-well format high-throughput assay platforms. Assays assessed activity at all human isoforms of the receptors, except where noted for the mouse 5-HT2A receptor. Receptor constructs in pcDNA vectors were generated from the Presto-Tango GPCR library with minor modifications. All compounds were serially diluted in drug buffer (HBSS, 20 mM HEPES, pH 7.4 supplemented with 0.1% bovine serum albumin and 0.01% ascorbic acid) and dispensed into 384-well assay plates using a FLIPR^TETRA (Molecular Devices). Every plate included a positive control such as 5-HT (for all 5-HT receptors), DADLE (DOR), salvinorin A (KOR), and DAMGO (MOR). For measurements of 5-HT2A, 5-HT2B, and 5-HT2C Gq-mediated calcium flux function, HEK Flp-In 293 T-Rex stable cell lines (Invitrogen) were loaded with Fluo-4 dye for one hour, stimulated with compounds and read for baseline (0-10 seconds) and peak fold-over-basal fluorescence (5 minutes) at 25° C. on the FLIPR^TETRA. For measurement of 5-HT6 and 5-HT7a functional assays, Gs-mediated cAMP accumulation was detected using the split-luciferase GloSensor assay in HEKT cells measuring luminescence on a Microbeta Trilux (Perkin Elmer) with a 15 min drug incubation at 25° C. For 5-HT1A, 5-HT1B, 5-HT1F, MOR, KOR, and DOR functional assays, Gi/o-mediated cAMP inhibition was measured using the split-luciferase GloSensor assay in HEKT cells, conducted similarly as above, but in combination with either 0.3 μM isoproterenol (5-HT1A, 5-HT1B, 5-HT1F) or 1 μM forskolin (MOR, KOR, and DOR) to stimulate endogenous cAMP accumulation. For measurement of 5-HT1D, 5-HT1E, 5-HT4, and 5-HT5A functional assays, β-arrestin2 recruitment was measured by the Tango assay utilizing HTLA cells expressing TEV fused-β-arrestin2, as described previously with minor modifications. […]

C57BL/6J mice = test: Head-twitch response (HTR) assay; conditions: intraperitoneal; fumarate salts; 5-MeO-DMT 10 mg/kg as positive control
[3] = tested on: mouse primary sensory cortex; test: In vivo spine dynamics, transcranial 2-photon imaging; conditions: 24 h after i.p. dose; TBG 50 mg/kg, DOI 10 mg/kg
Procedure: In Vivo Spine Dynamics. Male and female Thy1-GFP-M line mice (n=5 per condition) were purchased from The Jackson Laboratory (JAX #007788) and maintained in UCSC animal facilities according to an IACUC approved protocol. In vivo transcranial two-photon imaging and data analysis were performed as previously described. Briefly, mice were anesthetized with an intraperitoneal (i.p.) injection of a mixture of ketamine (87 mg/kg) and xylazine (8.7 mg/kg). A small region of the exposed skull was manually thinned down to 20-30 μm for optical access. Spines on apical dendrites in mouse primary sensory cortices were imaged using a Bruker Ultima IV two-photon microscope equipped with an Olympus water-immersion objective (40×, NA=0.8) and a Ti:Sapphire laser (Spectra-Physics Mai-Tai, excitation wavelength 920 nm). Images were taken at a zoom of 4.0 (pixel size 0.143×0.143 μm) and Z-step size of 0.7 μm. The mice received an i.p. injection (injection volume=5 mL/kg) of DOI (10 mg/kg) or TBG (50 mg/kg) immediately after they recovered from anesthesia given prior to the first imaging session. The animals were re-imaged 24 h after drug administration. Dendritic spine dynamics were analyzed using ImageJ. Spine formation and elimination were quantified as percentages of spine number on day 0.

COc1ccc2c(CCN(C)C)c[nH]c2c1 [Compound 6-MeO-DMT]
activation of 5HT2A sensor, agonist mode (5HT2A sensor): do not activate the 5HT2A sensor assay in agonist mode | activation of 5HT2A sensor, agonist mode, dose response (5HT2A sensor): do not | competition with 5-HT at 5HT2A sensor, antagonist mode, dose response (5HT2A sensor; antagonist mode, FIG. 17): compete off 5-HT

CCN(CC)C(=O)[C@@H]1C=C2c3cccc4[nH]c(Br)c(c34)C[C@H]2N(C)C1 [BOL148]
activation of 5HT2A sensor, agonist mode (5HT2A sensor): do not activate the 5HT2A sensor assay in agonist mode | competition with 5HT binding at 5HT2A sensor, antagonist mode (5HT2A sensor; antagonist mode): compete with 5HT binding to 5HT2A

CNC(C)Cc1ccc2c(c1)OCO2 (stereo not drawn) [R-MDMA]
activation of 5HT2A sensor, agonist mode (5HT2A sensor): do not activate the 5HT2A sensor assay in agonist mode

CCC1CC2CCC1N(CCc1c[nH]c3ccc(O)cc13)C2 (stereo not drawn) [Compound 11b]
psychoplastogenic effect on dendritic growth (Sholl analysis) [1]: weak psychoplastogens or did not promote neuronal growth

O=C1NCCN1CCN1CCC(c2cn(-c3ccc(F)cc3)c3ccc(Cl)cc23)CC1 [sertindole, reference compound]
behavioral phenotype with increasing concentration versus vehicle and lethal control (eugenol, 100 μM) (larval zebrafish): more phenotypically distinct from the vehicle control, while more closely resembling the lethal control

CC(C)(C)c1ccc(C(O)CCCN2CCC(C(O)(c3ccccc3)c3ccccc3)CC2)cc1 (stereo not drawn) [terfenadine, reference compound]
behavioral phenotype with increasing concentration versus vehicle and lethal control (eugenol, 100 μM) (larval zebrafish): more phenotypically distinct from the vehicle control, while more closely resembling the lethal control

O=S1OCC2C(CO1)C1(Cl)C(Cl)=C(Cl)C2(Cl)C1(Cl)Cl (stereo not drawn) [endosulfan, reference compound]
behavioral phenotype at highest concentration versus lethal control (larval zebrafish): phenotypically consistent with the lethal control

CCN(CC)C(=O)[C@@H]1C=C2c3cccc4[nH]cc(c34)C[C@H]2N(C)C1 [LSD, lysergic acid diethylamide]
activation of 5HT2A sensor, agonist mode (5HT2A sensor): activate the 5HT2A sensor assay in agonist mode | activation of 5HT2A sensor, agonist mode, dose response (5HT2A sensor): activate a 5HT2A sensor assay in agonist mode

CN(C)CCc1c[nH]c2ccccc12 [DMT]
activation of 5HT2A sensor, agonist mode (5HT2A sensor): activate the 5HT2A sensor assay in agonist mode

CC[C@H]1C[C@H]2C[C@H]3c4[nH]c5ccc(O)cc5c4CCN(C2)[C@@H]13 [noribogaine, reference compound]
behavioral phenotype at highest concentration versus lethal control (larval zebrafish): phenotypically consistent with the lethal control | behavioral phenotype with increasing concentration versus vehicle and lethal control (eugenol, 100 μM) (larval zebrafish): more phenotypically distinct from the vehicle control, while more closely resembling the lethal control | malformations, mortality, non-viable fish (zebrafish): greater survival, but the majority of the animals exhibited yolk sac and/or pericardial edemas

C1CCc2nnnn2CC1 [PTZ, pentylenetetrazole, reference compound]
seizure induction (neural activity) [2]: excessive neural activity

COc1ccc2[nH]cc(CCN(C)C)c2c1 [Compound 5-MeO-DMT, 5-methoxy-N,N-dimethyltryptamine, reference compound]
activity mode at 5-HT2B receptors (5-HT2B receptors): agonists of 5-HT2B receptors | activation of 5HT2A sensor, agonist mode (5HT2A sensor): activate the 5HT2A sensor assay in agonist mode | activation of 5HT2A sensor, agonist mode, dose response (5HT2A sensor): activate a 5HT2A sensor assay in agonist mode | hallucinogenic potential (head-twitch response) (C57BL/6J mice): robust HTR

ibogaine [reference compound]
psychoplastogenic effect on dendritic growth (Sholl analysis) [1]: demonstrates psychoplastogenic effects

O=C(CCCN1CCC(O)(c2ccc(Cl)cc2)CC1)c1ccc(F)cc1 [haloperidol, reference compound]
behavioral phenotype with increasing concentration versus vehicle and lethal control (eugenol, 100 μM) (larval zebrafish): more phenotypically distinct from the vehicle control, while more closely resembling the lethal control

CCN(CC)CCc1c[nH]c2cc(F)ccc12 [Compound 6-F-DET]
activation of 5HT2A sensor, agonist mode (5HT2A sensor): do not activate the 5HT2A sensor assay in agonist mode | competition with 5HT binding at 5HT2A sensor, antagonist mode (5HT2A sensor; antagonist mode): compete with 5HT binding to 5HT2A

O=C(c1ccc(F)cc1)C1CCN(CCn2c(=O)[nH]c3ccccc3c2=O)CC1 [Ketanserin, ketanserin]
activation of 5HT2A sensor, agonist mode (5HT2A sensor): do not activate the 5HT2A sensor assay in agonist mode | competition with 5HT binding at 5HT2A sensor, antagonist mode (5HT2A sensor; antagonist mode): compete with 5HT binding to 5HT2A

COc1cc(CC(C)N)c(OC)cc1I (stereo not drawn) [DOI, 2,5-dimethoxy-4-iodoamphetamine, reference compound]
activation of 5HT2A sensor, agonist mode (5HT2A sensor): activate the 5HT2A sensor assay in agonist mode | spine elimination [3]: no effect on spine elimination; also recorded: Neither TBG nor DOI affected spine elimination | spine formation [3]: increased spine formation
